# Structures can show the parent of a compound that is named as a salt.
# What was measured:
# [1] = molecular target: T1, human dopamine D3 receptors (Homo sapiens, UniProt P35462); assay: Receptor binding study, dopamine D3 receptor ([125I]-iodosulpride displacement); conditions: membranes from HEK-293 cells, 0.1 nM [125I]-iodosulpride
# T1 construct: expressed in transfected cells
# Protocol: (§1) The substance to be tested was dissolved either in methanol/Chremophor® (BASF-AG) or in dimethyl sulfoxide and then diluted with water to the desired concentration.
# (§2) The mixture (0.250 ml) is composed of membranes from ˜10^6 HEK-293 cells with stably expressed human dopamine D3 receptors, 0.1 nM [^125I]-iodosulpride and incubation buffer (total binding) or with addition of test substance (inhibition plot) or 1 μM spiperone (nonspecific binding). Triplicate mixtures were carried out.
# The incubation buffer contained 50 mM Tris, 120 mM NaCl, 5 mM KCl, 2 mM CaCl2, 2 mM MgCl2 and 0.1% bovine serum albumin, 10 μM quinolone, 0.1% ascorbic acid (prepared fresh each day). The buffer was adjusted to pH 7.4 with HCl.
# (§3) After incubation at 25° C. for 60 minutes, the mixtures were filtered under vacuum through Wathman GF/B glass fiber filters using a cell harvester. The filters were transferred by a filter transfer system into scintillation vials. After addition of 4 ml of Ultima Gold® (Packard), the samples were shaken for one hour and then the radioactivity was calculated in a beta counter (Packard, Tricarb 2000 or 2200CA). The cp values were converted into dpm by means of a standard quench series with the aid of the instrument's own program.
# (§4) Evaluation of the inhibition plots took place by iterative nonlinear regression analysis using the statistical analysis system (SAS) similar to the “LIGAND” program described by Munson and Rodbard.
# [2] = molecular target: T2, human dopamine D2 (L) receptors (long isoform) (Homo sapiens, UniProt P14416); assay: Receptor binding study, dopamine D2(L) receptor ([125I]-iodospiperone displacement); conditions: selectivity ratio D2(L) versus D3 binding
# T2 construct: expressed in transfected cells
# Protocol: as §1
# as §2, with “(1” for “(0.250”, “was” for “is”, “D2 (L) receptors (long isoform) and 0.01” for “D3 receptors, 0.1”, “[^125I]-iodospiperone” for “[^125I]-iodosulpride”, “haloperidol” for “spiperone”
# The incubation buffer contained 50 mM Tris, 120 mM NaCl, 5 mM KCl, 2 mM CaCl2, 2 mM MgCl2 and 0.1% bovine serum albumin. The buffer was adjusted to pH 7.4 with HCl.
# as §3, §4
# [3] = Investigation of the cerebral availability and the oral bioavailability; type: in vivo, male Wistar rats; conditions: rat; for bioavailability / Kp: male, Wistar; for bioavailability: plasma, AUCoral/AUCiv, oral 10 mg/kg, intravenous 2 mg/kg, read-out: F (bioavailability); for Kp: brain/plasma, oral, 10 mg/kg of body weight, read-out: AUCbrain/AUCplasma; for cmax (brain) / AUCbrain: oral (gavage) 10 mg/kg, brain tissue; for AUCbrain: trapezoidal method
# Protocol: The test substances were administered to male Wistar rats in parallel experiments in each case intravenously (tail vein, 2 mg/kg of body weight) and orally (gavage, 10 mg/kg of body weight). The test compound was dissolved in water with up to 4% by volume of DMSO and/or ethanol for intravenous administration and suspended in 4% by weight aqueous hydroxypropyl-cellulose solution for oral administration. After various times (intravenous: 5 min, 15 min, 30 min, 2 h, 8 h and 24 h; oral: 15 min, 30 min, 2 h, 8 h and 24 h) after the administration, a blood sample or brain tissue were taken from 2 rats in each case. The concentration of the test compound in the blood plasma and in the brain tissue (plasma and brain) was determined in a conventional way by coupled liquid chromatography/mass spectroscopy or by HPLC. The area under the concentration-time plot for brain (AUCbrain) and for plasma (AUCiV, AUCoral) were by means of the trapezoidal method from the results obtained [((tn−tn-1)×(cn+cn-1)/2) calculated, in which tn is the time of determination and tn-1 is the preceding time of determination, and cn and cn-1 are respectively the concentrations at time tn and tn-1]. The maximum concentration of the active ingredients in brain tissue cmax brain, the value of AUCbrain, and the AUCbrain/AUCplasma ratio is a measure of the cerebral availability of the active substance. In addition, the bioavailability F of the active ingredient was calculated in a manner known per se from the data (AUCoral/AUCiv in %).
# T2 sequence (P14416 whole entry, canonical isoform): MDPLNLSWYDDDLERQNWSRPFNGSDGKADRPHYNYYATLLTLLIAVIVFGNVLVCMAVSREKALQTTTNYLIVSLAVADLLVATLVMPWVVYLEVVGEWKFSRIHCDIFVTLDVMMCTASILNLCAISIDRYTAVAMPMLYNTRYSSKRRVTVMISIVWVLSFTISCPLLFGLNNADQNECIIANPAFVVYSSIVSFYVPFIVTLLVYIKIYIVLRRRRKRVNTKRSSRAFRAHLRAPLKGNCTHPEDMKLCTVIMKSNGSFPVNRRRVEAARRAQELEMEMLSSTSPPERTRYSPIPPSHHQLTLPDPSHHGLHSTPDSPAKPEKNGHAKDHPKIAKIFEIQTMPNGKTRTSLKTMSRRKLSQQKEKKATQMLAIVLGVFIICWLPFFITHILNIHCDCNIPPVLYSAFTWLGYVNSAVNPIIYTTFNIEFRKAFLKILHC
# T1 sequence (P35462 whole entry): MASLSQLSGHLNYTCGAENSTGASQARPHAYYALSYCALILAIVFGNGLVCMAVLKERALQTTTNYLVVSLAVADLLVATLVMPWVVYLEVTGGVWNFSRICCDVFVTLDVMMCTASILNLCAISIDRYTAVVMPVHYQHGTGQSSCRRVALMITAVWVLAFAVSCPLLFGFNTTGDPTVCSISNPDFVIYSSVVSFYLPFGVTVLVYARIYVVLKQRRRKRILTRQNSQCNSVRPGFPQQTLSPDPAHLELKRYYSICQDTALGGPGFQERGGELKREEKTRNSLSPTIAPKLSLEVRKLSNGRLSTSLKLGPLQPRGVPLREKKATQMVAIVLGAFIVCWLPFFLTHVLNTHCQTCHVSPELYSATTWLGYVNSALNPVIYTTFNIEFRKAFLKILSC
Ki [1],Ki (D2)/Ki (D3) [2],Structure (SMILES),also measured
0.0044 µM,90,"CCC(=O)c1ccc2c(c1)CN(CCCSc1nnc(-c3ccccc3)n1C)CC2 [Ia′-25, 2-{3-[(4-methyl-5-phenyl-4H-1,2,4-triazol-3-yl)thio]propyl}-7-propionyl-1,2,3,4-tetrahydroisoquinoline]",–
0.0214 µM,126,"CCC(=O)c1ccc2c(c1)CN(CCCSc1nnc(-c3ccccc3)n1C)C2.Cl [Ib′-25, 1-(2-{3-[(4-Methyl-5-phenyl-4H-1,2,4-triazol-3-yl)thio]propyl}-2,3-dihydro-1H-isoindol-5-yl)propan-1-one hydrochloride]",–
0.04 µM,49,"CCC(=O)c1ccc2c(c1)CN(CCCSc1nnc(-c3ccc[nH]3)n1C)C2.Cl [Ib′-65, 1-[2-(3-{[4-Methyl-5-(1H-pyrrol-2-yl)-4H-1,2,4-triazol-3-yl]thio}propyl)-2,3-dihydro-1H-isoindol-5-yl]propan-1-one hydrochloride]",–
0.0026 µM,59,"CCC(=O)c1ccc2c(c1)CN(CCCSc1nnc(-c3cc4ccccc4s3)n1C)CC2 [Ia′-57, 1-[2-(3-{[5-(1-Benzothien-2-yl)-4-methyl-4H-1,2,4-triazol-3-yl]thio}propyl)-1,2,3,4-tetrahydroisoquinolin-7-yl]propan-1-one]",–
0.0044 µM,103,"CCC(=O)c1ccc2c(c1)CN(CCCSc1nnc(-c3cccn3C)n1C)CC2 [Ia′-15, 2-(3-{[4-Methyl-5-(1-methyl-1H-pyrrol-2-yl)-4H-1,2,4-triazol-3-yl]thio}propyl)-7-propionyl-1,2,3,4-tetrahydroisoquinoline]",bioavailability [3]: 100%; Kp [3]: 0.3; cmax (brain) [3]: 686 ng/g; AUCbrain [3]: 2903 ng·h/g

# The remaining lines, values behind:
Structure (SMILES),Ki [1],Ki (D2)/Ki (D3) [2],also measured
"Cn1c(SCCCN2CCc3ccc(C(=O)c4ccccc4)cc3C2)nnc1-c1ccsc1 (as salt: hydrochloride) [Ia′-18, 7-Benzoyl-2-{3-[(4-methyl-5-thien-3-yl-4H-1,2,4-triazol-3-yl)thio]propyl}-1,2,3,4-tetrahydroisoquinoline]",–,–,melting point: 140 °C
"Cn1c(SCCCN2CCc3ccc(C(=O)c4cccc(F)c4)cc3C2)nnc1-c1ccccc1 (as salt: hydrochloride) [Ia′-68, 7-(3-Fluorobenzoyl)-2-{3-[(4-methyl-5-phenyl-4H-1,2,4-triazol-3-yl)thio]propyl}-1,2,3,4-tetrahydroisoquinolines]",–,–,melting point: 147 °C
"Cn1c(SCCCN2CCc3ccc(C(=O)c4cccc(F)c4)cc3C2)nnc1-c1cnccn1 [Ia′-58, 7-(3-Fluorobenzoyl)-2-{3-[(4-methyl-5-pyrazin-2-yl-4H-1,2,4-triazol-3-yl)thio]propyl}-1,2,3,4-tetrahydroisoquinoline]",0.0255 µM,39,–
"Cn1cccc1-c1nnc(SCCCN2CCc3ccc(C(=O)c4cccc(F)c4)cc3C2)n1C [Ia′-60, 7-(3-Fluorobenzoyl)-2-(3-{[4-methyl-5-(1-methyl-1H-pyrrol-2-yl)-4H-1,2,4-triazol-3-yl]thio}-propyl)-1,2,3,4-tetrahydroisoquinoline]",0.0303 µM,37,–
"CC(=O)c1ccc2c(c1)CN(CCCSc1nnc(-c3cccn3C)n1C)CC2 [Ia′-4, 7-Acetyl-2-(3-{[4-methyl-5-(1-methyl-1H-pyrrol-2-yl)-4H-1,2,4-triazol-3-yl]thio}propyl)-1,2,3,4-tetrahydroisoquinoline]",0.0045 µM,80,–
"Cn1c(SCCCN2CCc3ccc(C(=O)c4ccccc4)cc3C2)nnc1-c1ccncc1 [Ia′-1, 7-Benzoyl-2-{3-[(4-methyl-5-pyridin-4-yl-4H-1,2,4-triazol-3-yl)thio]propyl}-1,2,3,4-tetrahydroisoquinoline]",0.0114 µM,133,–
"Cn1c(SCCCN2CCc3ccc(C(=O)c4ccccc4)cc3C2)nnc1-c1ccco1 [Ia′-3, 7-Benzoyl-2-(3-{[5-(2-furyl)-4-methyl-4H-1,2,4-triazol-3-yl]thio}propyl)-1,2,3,4-tetrahydroisoquinoline]",0.0193 µM,40,–
"CC(=O)c1ccc2c(c1)CN(CCCSc1nnc(-c3cccnc3)n1C)CC2 [Ia′-39, 7-Acetyl-2-{3-[(4-methyl-5-pyridin-3-yl-4H-1,2,4-triazol-3-yl)thio]propyl}-1,2,3,4-tetrahydroisoquinolines]",0.0188 µM,37,–
"Cn1c(SCCCN2CCc3ccc(C(=O)c4ccccc4)cc3C2)nnc1-c1ccsc1 [Ia′-18, 7-Benzoyl-2-{3-[(4-methyl-5-thien-3-yl-4H-1,2,4-triazol-3-yl)thio]propyl}-1,2,3,4-tetrahydroisoquinoline]",0.0224 µM,48,–
"Cn1c(SCCCN2CCc3ccc(C(=O)c4cccc(F)c4)cc3C2)nnc1-c1cccnc1 [Ia′-63, 7-(3-Fluorobenzoyl)-2-{3-[(4-methyl-5-pyridin-3-yl-4H-1,2,4-triazol-3-yl)thio]propyl}-1,2,3,4-tetrahydroisoquinolines]",0.0403 µM,38,–
"Cn1cccc1-c1nnc(SCCCN2CCc3ccc(C(=O)c4ccccc4)cc3C2)n1C [Ia′-12, 7-Benzoyl-2-(3-{[4-methyl-5-(1-methyl-1H-pyrrol-2-yl)-4H-1,2,4-triazol-3-yl]thio}propyl)-1,2,3,4-tetrahydroisoquinoline]",0.0107 µM,90,bioavailability [3]: 10%; Kp [3]: 0.2; cmax (brain) [3]: 130 ng/g; AUCbrain [3]: 306 ng·h/g
"Cn1c(SCCCN2CCc3ccc(C(=O)c4ccccc4)cc3C2)nnc1-c1ccccc1 [Ia′-19, 7-Benzoyl-2-{3-[(4-methyl-5-phenyl-4H-1,2,4-triazol-3-yl)thio]propyl}-1,2,3,4-tetrahydroisoquinolines]",0.0086 µM,149,–
"Cn1c(SCCCN2CCc3ccc(C(=O)c4cccc(F)c4)cc3C2)nnc1-c1ccccc1 [Ia′-68, 7-(3-Fluorobenzoyl)-2-{3-[(4-methyl-5-phenyl-4H-1,2,4-triazol-3-yl)thio]propyl}-1,2,3,4-tetrahydroisoquinolines]",0.0149 µM,56,–
"CCC(=O)c1ccc2c(c1)CN(CCCSc1nnc(-c3cccn3C)n1C)CC2 (as salt: hydrochloride) [Ia′-15, 2-(3-{[4-Methyl-5-(1-methyl-1H-pyrrol-2-yl)-4H-1,2,4-triazol-3-yl]thio}propyl)-7-propionyl-1,2,3,4-tetrahydroisoquinoline]",–,–,melting point: 181 to 184 °C

# — patent publication US7465744B2, “Triazole compounds and the therapeutic use thereof” (Abbott GmbH & Co. KG, priority 2003, dated 2008)
